{"source": "patent US12239640B2", "about": "“Use of miloxacin in preparation of medicines for treating and/or preventing diseases with T-type calcium channels as therapeutic target” (SOOCHOW UNIVERSITY, priority 2020, dated 2025)", "key": {"[1]": {"test_system": "CFA-induced inflammatory pain model rats", "test": "Facial pain threshold of CFA-induced inflammatory pain model rats (von Frey)", "format": "in vivo, rat", "conditions": "day 2 after CFA; for effect on facial pain threshold (mechanical hyperalgesia), CFA model: at 3 h", "protocol": "Adult healthy male SD rats weighed 200-250 g were used. Before the experiment, the animals were allowed to acclimate to the breeding environment for three days. The model was established by a routine laboratory method. CFA was injected subcutaneously into the rat's facial whisker pad at a dose of 20 μl/mouse. Individuals with hyperalgesia and swelling of […] on day 2 after CFA injection were used as the experimental subjects, that is, the rats in the experiment group. Before the behavioral test, the rats were housed in a plexiglass box on a wire mesh frame to acclimate to the environment for three consecutive days, for 1 h each time. Test method: The middle part of the whisker pad was stimulated with von Frey filament at 1 g. If there were 3 escapes in 5 consecutive stimulations, the response was positive. Then, the same operation was repeated with von Frey filament at a lower level of intensity. If there was no positive response, the middle part of the whisker pad was stimulated with von Frey filament at a higher level of intensity. The minimum intensity at which a positive response occurs is taken as the facial pain threshold, that is, the facial mechanical pain threshold. It can be seen that CFA induction can lower the facial pain threshold of rats. • 3. Effect of miloxacin on the facial pain threshold of CFA-induced inflammatory pain model rats: 27 rats with CFA-induced inflammation obtained by the above method were divided into three groups, each having 9 rats. On day 2 after CFA induction, 10 nmol miloxacin was locally injected into the trigeminal ganglion of rats in the first group, 5 nmol miloxacin was locally injected into the trigeminal ganglion of rats in the second group, and the corresponding solvent DMSO was locally injected into the trigeminal ganglion of rats in the third group. After 1 h, 3 h, 6 h, 12 h, 18 h, and 24 h, the facial pain threshold of each group was detected. […] Study on the analgesic mechanism of miloxacin in CFA-induced inflammatory pain model rats: On day 2 after CFA induction, 2 nmol TTA-P2 was locally injected into the trigeminal ganglion, and then 10 nmol miloxacin was locally injected into the trigeminal ganglion after 30 min, which was used as the TTA-P2 group. The other group was injected with the corresponding solvent DMSO, and then administered with 10 nmol miloxacin by local injection 30 min later, which was used as the solvent group. TTA-P2 is a T-type calcium channel blocker, and the solvent for TTA-P2 is DMSO."}, "[2]": {"test_system": "CCI-ION model rats", "test": "Facial pain threshold of trigeminal neuropathic pain (CCI-ION) model rats (von Frey)", "format": "in vivo, rat", "conditions": "day 14 after model; for effect on facial pain threshold (mechanical hyperalgesia), CCI-ION model: at 3 h", "protocol": "Adult healthy male SD rats weighed 200-250 g were used. Before the experiment, the animals were allowed to acclimate to the breeding environment for three days. The rats were anesthetized with 4% chloral hydrate at an injection dose of 1 ml/100 g body weight. The tongue of the anesthetized rat in a supine position was pulled out and to the right to expose the left side of the mouth. At the level of the left maxillary first molar, a longitudinal incision of about 1 cm was cut along the gingival edge of the buccal aspect, and the tissue was bluntly isolated, to carefully expose the infraorbital nerve. The proximal and distal ends of the infraorbital nerve were loosely ligated with 5-0 suture, where the distance between the two ligatures was about 2 mm, and the tension was moderate. […] The process was the same as that in Example 4. It can be seen that CCI-ION can lower the facial pain threshold of rats. • 2. Effect of miloxacin on the facial pain threshold of CCI-ION model rats: 27 CCI-ION model rats obtained by the above method were divided into three groups, each having 9 rats. On day 14 after the CCI-ION model was established, 10 nmol miloxacin was locally injected into the trigeminal ganglion of rats in the first group, 5 nmol miloxacin was locally injected into the trigeminal ganglion of rats in the second group, and the corresponding solvent DMSO was locally injected into the trigeminal ganglion of rats in the third group. After 1 h, 3 h, 6 h, 9 h, 12 h, and 24 h, the facial pain threshold of each group was detected. […] Study on the analgesic mechanism of miloxacin in CCI-ION model rats: On day 14 after the CCI-ION model was established, 2 nmol TTA-P2 was locally injected into the trigeminal ganglion, and then 10 nmol miloxacin was locally injected into the trigeminal ganglion 30 min later, which was used as the TTA-P2 group. The other group was injected with the corresponding solvent DMSO, and then administered with 10 nmol miloxacin by local injection 30 min later, which was used as the solvent group."}, "[3]": {"target": "T1, T-type calcium channel subtype Cav3.1 (Homo sapiens, UniProt O43497)", "T1 construct": "expressed in transfected cells; host or cells: HEK293 cells", "T1 sequence (O43497 1-2171 isoform O43497-5)": "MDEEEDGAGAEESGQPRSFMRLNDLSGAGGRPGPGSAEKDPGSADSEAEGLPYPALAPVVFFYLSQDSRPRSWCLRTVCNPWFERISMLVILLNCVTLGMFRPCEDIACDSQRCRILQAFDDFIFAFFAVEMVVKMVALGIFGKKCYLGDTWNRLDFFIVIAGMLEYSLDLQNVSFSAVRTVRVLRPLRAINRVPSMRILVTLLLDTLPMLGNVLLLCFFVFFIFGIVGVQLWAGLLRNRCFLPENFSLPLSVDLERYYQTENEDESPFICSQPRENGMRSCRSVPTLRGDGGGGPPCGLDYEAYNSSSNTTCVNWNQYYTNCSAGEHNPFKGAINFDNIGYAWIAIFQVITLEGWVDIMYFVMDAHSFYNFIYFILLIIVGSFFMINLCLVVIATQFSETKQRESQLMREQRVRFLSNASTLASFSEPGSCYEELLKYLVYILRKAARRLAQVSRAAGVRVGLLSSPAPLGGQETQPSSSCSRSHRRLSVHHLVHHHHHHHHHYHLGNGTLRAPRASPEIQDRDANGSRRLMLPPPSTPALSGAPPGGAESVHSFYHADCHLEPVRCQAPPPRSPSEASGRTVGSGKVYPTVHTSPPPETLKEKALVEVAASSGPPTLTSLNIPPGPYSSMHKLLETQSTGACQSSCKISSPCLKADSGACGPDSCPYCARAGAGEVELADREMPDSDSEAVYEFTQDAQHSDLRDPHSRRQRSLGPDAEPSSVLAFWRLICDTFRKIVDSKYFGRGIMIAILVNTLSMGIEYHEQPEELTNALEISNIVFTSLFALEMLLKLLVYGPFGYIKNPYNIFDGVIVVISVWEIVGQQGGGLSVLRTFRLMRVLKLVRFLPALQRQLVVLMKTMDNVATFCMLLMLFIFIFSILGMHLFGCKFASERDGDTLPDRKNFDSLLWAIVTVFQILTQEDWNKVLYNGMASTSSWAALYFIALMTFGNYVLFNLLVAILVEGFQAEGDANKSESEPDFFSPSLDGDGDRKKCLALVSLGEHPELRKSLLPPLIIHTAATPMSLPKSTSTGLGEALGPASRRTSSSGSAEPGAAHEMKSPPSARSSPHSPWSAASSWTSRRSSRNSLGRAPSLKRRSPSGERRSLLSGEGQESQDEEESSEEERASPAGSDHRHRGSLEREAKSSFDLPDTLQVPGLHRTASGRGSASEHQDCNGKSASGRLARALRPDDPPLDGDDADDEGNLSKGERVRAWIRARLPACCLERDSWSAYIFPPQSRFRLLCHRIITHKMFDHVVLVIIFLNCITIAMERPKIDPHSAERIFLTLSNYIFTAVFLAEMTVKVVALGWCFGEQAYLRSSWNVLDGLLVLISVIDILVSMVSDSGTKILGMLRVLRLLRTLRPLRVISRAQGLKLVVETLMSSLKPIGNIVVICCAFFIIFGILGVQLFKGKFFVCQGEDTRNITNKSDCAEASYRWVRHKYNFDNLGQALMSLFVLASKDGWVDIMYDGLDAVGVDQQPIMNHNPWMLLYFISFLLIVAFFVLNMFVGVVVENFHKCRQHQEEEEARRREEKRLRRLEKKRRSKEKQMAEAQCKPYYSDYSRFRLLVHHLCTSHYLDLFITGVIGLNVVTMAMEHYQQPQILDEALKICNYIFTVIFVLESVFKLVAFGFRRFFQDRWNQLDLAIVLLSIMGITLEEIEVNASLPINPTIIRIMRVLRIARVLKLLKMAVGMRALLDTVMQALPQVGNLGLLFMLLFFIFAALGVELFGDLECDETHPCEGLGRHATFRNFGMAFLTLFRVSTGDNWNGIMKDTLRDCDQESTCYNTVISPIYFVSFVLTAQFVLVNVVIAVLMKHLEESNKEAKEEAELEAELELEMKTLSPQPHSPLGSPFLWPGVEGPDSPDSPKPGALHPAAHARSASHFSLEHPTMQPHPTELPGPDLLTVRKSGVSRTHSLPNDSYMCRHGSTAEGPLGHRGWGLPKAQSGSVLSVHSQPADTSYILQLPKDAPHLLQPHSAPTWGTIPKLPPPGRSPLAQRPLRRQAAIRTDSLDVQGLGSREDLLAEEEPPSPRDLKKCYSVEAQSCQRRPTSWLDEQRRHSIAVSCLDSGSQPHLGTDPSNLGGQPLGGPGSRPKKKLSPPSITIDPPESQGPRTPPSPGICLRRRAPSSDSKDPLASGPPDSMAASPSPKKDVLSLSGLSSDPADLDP", "test": "Whole-cell voltage clamp of Cav3.1 current in transfected HEK293 cells", "format": "cell-based", "protocol": "(§1) 1. Preparation before transfection: A flask of HEK293 cell culture was removed of the culture medium, and gently washed twice by adding 3 ml of a phosphate buffer. Then, the cells were digested by adding 1 ml of 0.25% trypsin, and pipetted by adding DMEM medium after 3-5 min to collect the cells. The cells were centrifuged at 1000 rpm for 5 min, and the supernatant was discarded. 5-10 ml of DMEM medium was added to suspend the cells. The cells were slowly pipetted again, then subcultured in a 35 mm petri dish covered with glass slides, and transfected after 24 h.\n(§2) 2. Transfection: The cells were transfected by liposome transfection, where the transfection reagent was Lipofectamine 3000, and the materials used: Cav3 plasmid 1.5 μg, transfection enhancement factor (TAG) 0.25 μg, and enhanced green fluorescent protein (EGFP) 0.1 μg. 48-72 h after transfection, the whole-cell patch clamp technique was used to record fluorescent HEK293 cells, with 9-12 cells per group.\n(§3) The base sequences of Cav3.1, Cav3.2 and Cav3.3 plasmids were verified by gene sequencing and confirmed by DNA Star sequence analysis and alignment software that they are respectively consistent with the sequence Nos. NM_198376.3 (Cav3.1), NM_021098.3 (Cav3.2) and NM_021096.4 (Cav3.3) published in the NCBI database.\n(§4) At room temperature, Multiclamp700B amplifier was used for whole-cell voltage clamp recording. The glass electrode was a drawn electrode, and the resistance of the electrode filled with intracellular fluid was 3-5 MΩ. DigiData1322A was converted into a digital signal in pClamp10.2 software. The series resistance compensation was 70-80%. The stimulating square wave was depolarized to −30 mV with a clamping voltage of −90 mV, and then returned to the clamping potential level. The current amplitude of the T-type calcium channel at this time was recorded.\n(§5) Internal pipette solution: 110 cesium chloride, 4 magnesium-ATP, 0.3 sodium-GTP, 25 HEPES, 10 EGTA. External pipette solution: 5 barium chloride, 140 tetraethylamine chloride, 5 cesium chloride, 0.5 magnesium chloride, 5.5 glucose, 10 HEPES. […]"}, "[4]": {"target": "T2, T-type calcium channel subtype Cav3.2 (Homo sapiens, UniProt O95180)", "T2 construct": "expressed in transfected cells; host or cells: HEK293 cells", "T2 sequence (O95180 whole entry)": "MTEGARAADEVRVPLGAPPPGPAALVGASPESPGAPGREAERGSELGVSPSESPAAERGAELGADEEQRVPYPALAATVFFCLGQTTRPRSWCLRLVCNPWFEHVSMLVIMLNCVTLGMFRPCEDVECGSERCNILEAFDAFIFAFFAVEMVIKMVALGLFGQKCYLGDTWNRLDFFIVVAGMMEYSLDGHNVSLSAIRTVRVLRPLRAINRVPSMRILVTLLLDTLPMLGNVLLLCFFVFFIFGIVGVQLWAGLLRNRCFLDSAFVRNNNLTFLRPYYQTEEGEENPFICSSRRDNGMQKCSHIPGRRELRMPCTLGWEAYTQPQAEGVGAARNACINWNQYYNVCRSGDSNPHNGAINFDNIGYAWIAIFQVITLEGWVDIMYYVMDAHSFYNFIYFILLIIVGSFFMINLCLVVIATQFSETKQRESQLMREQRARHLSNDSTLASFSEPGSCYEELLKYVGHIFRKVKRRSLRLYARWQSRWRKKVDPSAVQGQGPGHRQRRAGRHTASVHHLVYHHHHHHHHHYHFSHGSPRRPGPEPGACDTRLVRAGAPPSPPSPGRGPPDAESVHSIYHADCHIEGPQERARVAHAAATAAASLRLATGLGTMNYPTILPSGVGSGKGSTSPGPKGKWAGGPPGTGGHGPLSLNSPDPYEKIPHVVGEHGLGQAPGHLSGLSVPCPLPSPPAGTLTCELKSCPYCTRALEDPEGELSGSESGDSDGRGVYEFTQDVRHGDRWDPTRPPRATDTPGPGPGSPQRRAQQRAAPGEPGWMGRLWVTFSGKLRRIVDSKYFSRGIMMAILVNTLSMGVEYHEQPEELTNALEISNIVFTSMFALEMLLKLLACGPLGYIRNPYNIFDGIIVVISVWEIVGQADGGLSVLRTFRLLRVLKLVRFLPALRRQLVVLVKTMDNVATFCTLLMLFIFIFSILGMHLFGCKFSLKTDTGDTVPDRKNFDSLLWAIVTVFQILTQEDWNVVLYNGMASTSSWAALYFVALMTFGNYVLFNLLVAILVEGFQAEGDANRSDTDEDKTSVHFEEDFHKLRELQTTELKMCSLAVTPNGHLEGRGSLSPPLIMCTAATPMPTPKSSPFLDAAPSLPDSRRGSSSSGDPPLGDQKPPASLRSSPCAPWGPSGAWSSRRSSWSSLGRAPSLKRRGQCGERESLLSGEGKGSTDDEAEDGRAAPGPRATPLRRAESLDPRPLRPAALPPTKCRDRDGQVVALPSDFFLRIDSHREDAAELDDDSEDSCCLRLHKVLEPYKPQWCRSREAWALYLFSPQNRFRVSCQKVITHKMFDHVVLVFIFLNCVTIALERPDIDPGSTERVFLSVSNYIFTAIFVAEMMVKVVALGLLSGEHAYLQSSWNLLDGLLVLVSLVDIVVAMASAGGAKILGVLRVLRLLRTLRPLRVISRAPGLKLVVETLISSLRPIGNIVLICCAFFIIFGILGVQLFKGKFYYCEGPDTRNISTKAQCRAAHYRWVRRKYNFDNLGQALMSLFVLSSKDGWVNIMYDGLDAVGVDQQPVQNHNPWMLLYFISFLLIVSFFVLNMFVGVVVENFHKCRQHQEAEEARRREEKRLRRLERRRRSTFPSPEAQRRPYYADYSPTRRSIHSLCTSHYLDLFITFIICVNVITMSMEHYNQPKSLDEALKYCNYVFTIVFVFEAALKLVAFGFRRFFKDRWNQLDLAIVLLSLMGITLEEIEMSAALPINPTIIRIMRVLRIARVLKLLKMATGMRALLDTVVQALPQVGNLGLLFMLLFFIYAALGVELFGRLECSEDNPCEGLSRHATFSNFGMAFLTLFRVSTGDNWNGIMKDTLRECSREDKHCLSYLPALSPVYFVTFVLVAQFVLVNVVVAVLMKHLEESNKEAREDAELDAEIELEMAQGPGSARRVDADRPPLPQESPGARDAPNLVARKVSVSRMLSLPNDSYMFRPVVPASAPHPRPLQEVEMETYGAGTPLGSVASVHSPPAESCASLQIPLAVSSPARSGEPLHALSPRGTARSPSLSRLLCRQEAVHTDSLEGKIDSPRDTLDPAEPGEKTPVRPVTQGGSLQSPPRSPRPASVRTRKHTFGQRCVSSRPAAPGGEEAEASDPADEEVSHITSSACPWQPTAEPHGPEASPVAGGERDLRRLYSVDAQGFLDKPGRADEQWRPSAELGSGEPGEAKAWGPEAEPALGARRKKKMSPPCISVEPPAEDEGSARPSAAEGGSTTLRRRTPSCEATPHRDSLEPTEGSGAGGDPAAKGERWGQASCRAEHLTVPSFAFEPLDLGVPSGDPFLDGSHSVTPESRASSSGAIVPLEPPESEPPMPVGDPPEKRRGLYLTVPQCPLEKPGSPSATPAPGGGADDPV", "test": "Whole-cell voltage clamp of Cav3.2 current in transfected HEK293 cells", "format": "cell-based", "protocol": "as §1, §2, §3, §4, §5"}, "[5]": {"target": "T3, T-type calcium channel subtype Cav3.3 (Homo sapiens, UniProt Q9P0X4)", "T3 construct": "expressed in transfected cells; host or cells: HEK293 cells", "test": "Whole-cell voltage clamp of Cav3.3 current in transfected HEK293 cells", "format": "cell-based", "conditions": "10 μM miloxacin, step -90 mV to -30 mV", "protocol": "as §1\nas §2, with “group. […]” for “group.”\nAt room temperature, Multiclamp700B amplifier was used for whole-cell voltage clamp recording. […] The current amplitude of the T-type calcium channel at this time was recorded. […]"}, "[6]": {"test_system": "trigeminal ganglion neurons", "test": "Firing of neuronal action potential in acutely dissociated rat trigeminal ganglion neurons (current clamp)", "format": "cell-based", "conditions": "10 μM miloxacin, 180 pA for 1 sec; control 13.3±1.5", "protocol": "The process was the same as that in Example 2. At room temperature, Multiclamp 700B amplifier was used for whole-cell current clamp recording. A current of 180 pA was injected into the cell for 1 sec to stabilize the cell at −70 mV, and the frequency of the generated action potential was recorded. Internal pipette solution: 10 sodium chloride, 110 potassium chloride, 2 EGTA, 25 HEPES, 0.5 sodium-GTP, 4 magnesium-ATP. External pipette solution: 2 potassium chloride, 128 sodium chloride, 2 calcium chloride, 2 magnesium chloride, 30 glucose, 25 HEPES. The unit is mM, that is, millimoles/liter. 10 μM miloxacin was directly administered to the T-type calcium channel in the trigeminal ganglion neurons as the treatment group. The groups before miloxacin administration were used as control groups."}, "[7]": {"test_system": "normal rats", "test": "Facial pain threshold of normal rats (von Frey)", "format": "in vivo, rat", "conditions": "10 nmol injected into trigeminal ganglion, vs. solvent group", "protocol": "Before the behavioral test, the rats were housed in a plexiglass box on a wire mesh frame to acclimate to the environment for three consecutive days, for 1 h each time. Test method: The middle part of the whisker pad was stimulated with von Frey filament at 1 g. If there were 3 escapes in 5 consecutive stimulations, the response was positive. Then, the same operation was repeated with von Frey filament at a lower level of intensity. If there was no positive response, the middle part of the whisker pad was stimulated with von Frey filament at a higher level of intensity. The minimum intensity at which a positive response occurs is taken as the facial pain threshold, that is, the facial mechanical pain threshold. • 1. Effect of miloxacin on the facial pain threshold of normal rats (without CFA induction): 20 normal rats were divided into two groups, each having 10 rats. The first group was a solvent group, and the second group was a treatment group. 10 nmol miloxacin was injected into the trigeminal ganglion of the second group of rats, and the corresponding solvent DMSO was injected into the trigeminal ganglion of the first group of rats."}, "[8]": {"test_system": "T-type calcium channel", "test": "T-type calcium channel current in acutely dissociated primary rat trigeminal ganglion neurons", "format": "cell-based", "source_text": "Specifically, trigeminal ganglion neurons from adult male SD rats were acutely dissociated under the conditions of enzymatic hydrolysis of trigeminal ganglion neurons (Zhang Y et al., J Pineal Res, 2018, 64, e12476).\nThe trigeminal ganglia of male SD rats weighed about 220 g were exposed after anesthesia. The bilateral trigeminal ganglia were taken by using microscopic dissecting forceps, removed of their fiber connections, and then immediately placed in ice-cold oxygenated DMEM medium. The trigeminal ganglion in the culture medium was transferred into 3 mg/ml collagenase digestion solution, cut into pieces with microscissors, and digested at 37° C. for 45 min, and then digested in 2 mg/ml trypsin digestion solution for another 15 min. After the above operations, the digestion was terminated by adding DMEM medium containing 10% fetal bovine serum. The cells were dispersed by repeatedly pipetting, and filtered through a 40 μm cell sieve. The resulting suspension was centrifuged at 800 rpm for 3 min. After centrifugation, the supernatant was discarded, and the cell pellet was resuspended in DMEM medium. After resuspension, the cell suspension was seeded on a cover glass pre-coated with polylysine in a 24-well culture plate, and placed in an incubator at 37° C. with 5% CO2 for later use.\nThe process was the same as that in Example 1. […]"}, "[9]": {"conditions": "2 nmol local injection into trigeminal ganglion"}, "[10]": {"conditions": "10 μM miloxacin, step -90 mV to -30 mV"}, "[11]": {"conditions": "5 nmol local injection into trigeminal ganglion"}, "[12]": {"conditions": "10 nmol local injection into trigeminal ganglion"}, "[13]": {"conditions": "10 nmol miloxacin 30 min after 2 nmol TTA-P2, trigeminal ganglion"}}, "data": [{"smiles": "CC1(C)C[C@@H](CN2CCC(F)(CNC(=O)c3cc(Cl)cc(Cl)c3)CC2)CCO1", "note": "[TTA-P2, 3,5-dichloro-N-[[4-fluoro-1-[[(4S)-tetrahydro-2,2-dimethyl-2H-pyran-4-yl]methyl]-4-piperidine]methyl]benzamide]", "values": [{"measurement": "effect of TTA-P2 on facial pain threshold, CFA model", "setting": "[1]; [9]", "result": "can increase the facial pain threshold"}, {"measurement": "effect of TTA-P2 on facial pain threshold, CCI-ION model", "setting": "[2]; [9]", "result": "can increase the facial pain threshold"}]}, {"smiles": "COn1cc(C(=O)O)c(=O)c2cc3c(cc21)OCO3", "note": "[miloxacin]", "values": [{"measurement": "inactivation constant V1/2 of subtype Cav3.1, left shift", "setting": "[3]; 10 μM miloxacin vs. control", "result": "6.5±0.7", "unit": "mV"}, {"measurement": "subtype Cav3.1 current reduced compared to control", "setting": "[3]; [10]", "result": "49.6±2.9", "unit": "%"}, {"measurement": "IC50", "setting": "[3]; dose-effect curve", "result": "6.5 ± 0.9", "unit": "µM"}, {"measurement": "effect on facial pain threshold (mechanical hyperalgesia), CFA model", "setting": "[1]; [11]", "result": "significantly reversed mechanical hyperalgesia"}, {"measurement": "effect on facial pain threshold (mechanical hyperalgesia), CFA model", "setting": "[1]; [12]", "result": "significantly reversed mechanical hyperalgesia"}, {"measurement": "effect of miloxacin after TTA-P2 on facial pain threshold, CFA model", "setting": "[1]; [13]", "result": "does not further increase the facial pain threshold"}, {"measurement": "inactivation constant V1/2 of subtype Cav3.2, left shift", "setting": "[4]; 10 μM miloxacin vs. control", "result": "8.5±0.3", "unit": "mV"}, {"measurement": "subtype Cav3.2 current reduced compared to control", "setting": "[4]; [10]", "result": "57.2±3.3", "unit": "%"}, {"measurement": "IC50", "setting": "[4]; dose-effect curve", "result": "8.2 ± 0.6", "unit": "µM"}, {"measurement": "effect on facial pain threshold (mechanical hyperalgesia), CCI-ION model", "setting": "[2]; [11]", "result": "significantly reversed mechanical hyperalgesia"}, {"measurement": "effect on facial pain threshold (mechanical hyperalgesia), CCI-ION model", "setting": "[2]; [12]", "result": "significantly reversed mechanical hyperalgesia"}, {"measurement": "effect of miloxacin after TTA-P2 on facial pain threshold, CCI-ION model", "setting": "[2]; [13]", "result": "does not further increase the facial pain threshold"}, {"measurement": "subtype Cav3.3 current reduced compared to control", "setting": "[5]", "result": "2.1±0.7", "unit": "%"}, {"measurement": "action potential (number in a 1-sec stimulation course)", "setting": "[6]", "result": "6.1±0.3"}, {"measurement": "effect on facial pain threshold of normal rats", "setting": "[7]", "result": "does not affect the facial pain threshold"}, {"measurement": "T-type calcium channel current reduced compared to control", "setting": "[8]; 10 μM miloxacin", "result": "52.7±2.6", "unit": "%"}, {"measurement": "IC50", "setting": "[8]; dose-effect curve", "result": "7.7 ± 0.6", "unit": "µM"}]}]}
